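Cultured in 96-well plates, cells were exposed to test compound for 48 hours across five concentrations. GI50 marks 50% less growth.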 Activity calls are given as the source filed them. Rule as the data show it: active = GI50 up to about 1.1 µM and inactive = higher.
Key:
Experiment in all cases: NCI-60 cell line screen, 48 h
SK-MEL-28 = tested on: SK-MEL-28
SK-MEL-5 = tested on: SK-MEL-5
IGROV-1 = tested on: IGROV-1
OVCAR-5 = tested on: OVCAR-5
TK-10 = tested on: TK-10
MOLT-4 = tested on: MOLT-4
HL-60 = tested on: HL-60
RPMI-8226 = tested on: RPMI-8226
UACC-257 = tested on: UACC-257
OVCAR-3 = tested on: OVCAR-3
UO-31 = tested on: UO-31
EKVX = tested on: EKVX
HCT-15 = tested on: HCT-15
786-0 = tested on: 786-0
SR = tested on: SR
U-251 = tested on: U-251
SF-539 = tested on: SF-539

| SMILES | GI50 (SK-MEL-28) | GI50 (SK-MEL-5) | GI50 (IGROV-1) | GI50 (OVCAR-5) | GI50 (TK-10) | GI50 (MOLT-4) | GI50 (HL-60) | GI50 (RPMI-8226) | GI50 (UACC-257) | GI50 (OVCAR-3) | GI50 (UO-31) | GI50 (EKVX) | GI50 (HCT-15) | GI50 (786-0) | GI50 (SR) | GI50 (U-251) | GI50 (SF-539) |
| --- | --- | --- | --- | --- | --- | --- | --- | --- | --- | --- | --- | --- | --- | --- | --- | --- | --- |
| CC(=O)c1cccc(C)c1C(=O)O | > 100 µM (inactive) | > 100 µM (inactive) | > 100 µM (inactive) | > 100 µM (inactive) | > 100 µM (inactive) | > 100 µM (inactive) | > 100 µM (inactive) | > 100 µM (inactive) | > 100 µM (inactive) | > 100 µM (inactive) | > 100 µM (inactive) | > 100 µM (inactive) | > 100 µM | > 100 µM (inactive) | > 100 µM (inactive) | > 100 µM (inactive) |  |
| COc1cc2ccc(C(=O)O)cc2cc1OC | > 100 µM (inactive) | > 100 µM (inactive) | > 100 µM (inactive) | > 100 µM (inactive) | > 100 µM (inactive) | > 100 µM (inactive) |  | > 100 µM (inactive) | > 100 µM (inactive) | > 100 µM (inactive) | > 100 µM (inactive) | > 100 µM (inactive) | > 100 µM | > 100 µM (inactive) |  | > 100 µM (inactive) | > 100 µM (inactive) |
| O=C1C=C(c2ccccc2)NC1(c1ccccc1)c1cc(-c2ccccc2)[nH]c1-c1ccccc1 (configuration not stated) | > 100 µM (inactive) |  | > 100 µM (inactive) |  |  | > 100 µM (inactive) | > 100 µM (inactive) |  | > 100 µM (inactive) | > 100 µM (inactive) | > 100 µM (inactive) | > 100 µM (inactive) | > 100 µM | > 100 µM (inactive) | > 100 µM (inactive) | > 100 µM (inactive) | > 100 µM (inactive) |
| CC(C)c1cccc(C(C)C)c1NC(=O)CCC(=O)NN | > 100 µM (inactive) | > 100 µM (inactive) | > 100 µM (inactive) | > 100 µM (inactive) | > 100 µM (inactive) | > 100 µM (inactive) | > 100 µM (inactive) | 46.1 µM (inactive) | > 100 µM (inactive) | > 100 µM (inactive) | > 100 µM (inactive) | > 100 µM (inactive) | 18 µM | > 100 µM (inactive) |  | > 100 µM (inactive) | > 100 µM (inactive) |
| O=C(CC/C(CC(=O)c1ccc(Cl)cc1)=N\O)Nc1cccc(Cl)c1 | > 100 µM (inactive) | > 100 µM (inactive) | > 100 µM (inactive) | > 100 µM (inactive) | > 100 µM (inactive) | > 100 µM (inactive) |  | > 100 µM (inactive) | > 100 µM (inactive) | > 100 µM (inactive) | > 100 µM (inactive) | > 100 µM (inactive) | > 100 µM | > 100 µM (inactive) |  | > 100 µM (inactive) | > 100 µM (inactive) |
| O=C1Cc2ccccc2N1/N=C\c1ccc([N+](=O)[O-])cc1 | > 100 µM (inactive) | > 100 µM (inactive) | > 100 µM (inactive) | > 100 µM (inactive) | > 100 µM (inactive) | > 100 µM (inactive) | > 100 µM (inactive) | > 100 µM (inactive) | > 100 µM (inactive) | > 100 µM (inactive) | > 100 µM (inactive) | > 100 µM (inactive) | > 100 µM | > 100 µM (inactive) |  | > 100 µM (inactive) | > 100 µM (inactive) |
| O=C(OCc1ccccc1)c1ccccc1-c1c2ccc(=O)cc-2oc2cc(OCc3ccccc3)ccc12 | 21.4 µM (inactive) | 5.86 µM (inactive) | 11 µM (inactive) | 19.8 µM (inactive) |  | 1.95 µM (inactive) | 5.48 µM (inactive) | 5.48 µM (inactive) | 8.95 µM (inactive) | 17.6 µM (inactive) | 6.12 µM (inactive) | 6.61 µM (inactive) | 9.84 µM | 15.1 µM (inactive) | 4.49 µM (inactive) | 5.32 µM (inactive) | 13.6 µM (inactive) |
| CC(C)N(C(=O)C12C3C4C1C1C2C3C41C(=O)N(C(C)C)C(C)C)C(C)C (configuration not stated) | > 50 µM (inactive) | > 50 µM (inactive) | > 50 µM (inactive) | > 50 µM (inactive) | > 50 µM (inactive) | > 50 µM (inactive) | > 50 µM (inactive) | > 50 µM (inactive) | > 50 µM (inactive) | > 50 µM (inactive) | > 50 µM (inactive) | > 50 µM (inactive) | > 50 µM | > 50 µM (inactive) |  | > 50 µM (inactive) | > 50 µM (inactive) |
| CC(=O)N1CC2Nc3ccccc3C2CC1CO (configuration not stated) | > 100 µM (inactive) | > 100 µM (inactive) | > 100 µM (inactive) | > 100 µM (inactive) | > 100 µM (inactive) | > 100 µM (inactive) | > 100 µM (inactive) | > 100 µM (inactive) | > 100 µM (inactive) | > 100 µM (inactive) | > 100 µM (inactive) | > 100 µM (inactive) | > 100 µM | > 100 µM (inactive) |  | > 100 µM (inactive) | > 100 µM (inactive) |
| NC(=O)c1cn(Cc2ccccc2)c(=O)n1Cc1ccccc1 | > 100 µM (inactive) | > 100 µM (inactive) | > 100 µM (inactive) | > 100 µM (inactive) | > 100 µM (inactive) | > 100 µM (inactive) | > 100 µM (inactive) | > 100 µM (inactive) | > 100 µM (inactive) | > 100 µM (inactive) | > 100 µM (inactive) | > 100 µM (inactive) | > 100 µM | > 100 µM (inactive) |  | > 100 µM (inactive) | > 100 µM (inactive) |
| CC1(C)Cc2c(oc3ncnc(N)c23)CS1 |  | > 100 µM (inactive) | > 100 µM (inactive) | > 100 µM (inactive) |  | > 100 µM (inactive) |  | > 100 µM (inactive) | > 100 µM (inactive) | > 100 µM (inactive) | 49.2 µM (inactive) | > 100 µM (inactive) | > 100 µM | > 100 µM (inactive) | > 100 µM (inactive) | > 100 µM (inactive) | > 100 µM (inactive) |
| CCCNC(=O)C1C(=O)C(=O)N(CCC)C1=O (configuration not stated) | > 100 µM (inactive) | > 100 µM (inactive) | > 100 µM (inactive) | 56.9 µM (inactive) | > 100 µM (inactive) | > 100 µM (inactive) |  | > 100 µM (inactive) | > 100 µM (inactive) | > 100 µM (inactive) | > 100 µM (inactive) | > 100 µM (inactive) | > 100 µM | > 100 µM (inactive) |  | > 100 µM (inactive) | > 100 µM (inactive) |
| Cc1ccc(C2OC(COCc3ccc(Cl)cc3)C(OCc3ccc(Cl)cc3)C2O)cc1 (configuration not stated) | 31.1 µM (inactive) | 12.1 µM (inactive) | 8.89 µM (inactive) | > 100 µM (inactive) | 12.7 µM (inactive) | 2.06 µM (inactive) |  | 4.76 µM (inactive) | 17 µM (inactive) | 10.7 µM (inactive) | 6.76 µM (inactive) | 13 µM (inactive) | 7.85 µM | > 10 µM (inactive) | 3.22 µM (inactive) | 10.5 µM (inactive) | 16 µM (inactive) |
| COC(=O)NC12CC3CC(CC(F)(C3)C1)C2 | > 100 µM (inactive) |  | > 100 µM (inactive) | > 100 µM (inactive) | > 100 µM (inactive) | > 100 µM (inactive) | > 100 µM (inactive) | > 100 µM (inactive) | > 100 µM (inactive) | > 100 µM (inactive) | > 100 µM (inactive) | > 100 µM (inactive) |  | > 100 µM (inactive) |  | > 100 µM (inactive) | > 100 µM (inactive) |
| O=C(CCC(=O)Nc1cccc(Cl)c1)CC(=O)c1ccc(F)cc1 | > 100 µM (inactive) |  |  | > 100 µM (inactive) | > 100 µM (inactive) | > 100 µM (inactive) | > 100 µM (inactive) | > 100 µM (inactive) | > 100 µM (inactive) | > 100 µM (inactive) | > 100 µM (inactive) |  | > 100 µM | > 100 µM (inactive) | > 100 µM (inactive) |  | > 100 µM (inactive) |
| CCOC(C)OCC#CCCBr (configuration not stated) |  | > 100 µM (inactive) | > 100 µM (inactive) | > 100 µM (inactive) | > 100 µM (inactive) | > 100 µM (inactive) | 80.5 µM (inactive) | > 100 µM (inactive) | > 100 µM (inactive) | > 100 µM (inactive) | > 100 µM (inactive) | > 100 µM (inactive) | > 100 µM | > 100 µM (inactive) |  | > 100 µM (inactive) | > 100 µM (inactive) |
| CC(=O)O[C@]12CCCCCC1C1(O)C(O)CCCCC12 (some centres not stated) | > 100 µM (inactive) | > 100 µM (inactive) |  |  | > 100 µM (inactive) | > 100 µM (inactive) | > 100 µM (inactive) | > 100 µM (inactive) | > 100 µM (inactive) |  | > 100 µM (inactive) | > 100 µM (inactive) | > 100 µM | > 100 µM (inactive) | > 100 µM (inactive) | > 100 µM (inactive) |  |
| CCOC(=O)[C@]12C3C=CC(C3)C1C(=O)C1OC12 (some centres not stated) | > 100 µM (inactive) | > 100 µM (inactive) | > 100 µM (inactive) | > 100 µM (inactive) | > 100 µM (inactive) | > 100 µM (inactive) | > 100 µM (inactive) | > 100 µM (inactive) | > 100 µM (inactive) | > 100 µM (inactive) | > 100 µM (inactive) | > 100 µM (inactive) | > 100 µM | > 100 µM (inactive) |  | > 100 µM (inactive) | > 100 µM (inactive) |
| Cc1cccc(N(CC(=O)O)S(=O)(=O)c2ccccc2)c1 | > 100 µM (inactive) | > 100 µM (inactive) | > 100 µM (inactive) | > 100 µM (inactive) | > 100 µM (inactive) | > 100 µM (inactive) | > 100 µM (inactive) | > 100 µM (inactive) | > 100 µM (inactive) | > 100 µM (inactive) | > 100 µM (inactive) | > 100 µM (inactive) | > 100 µM | > 100 µM (inactive) |  | > 100 µM (inactive) | > 100 µM (inactive) |

Reference: ChEMBL document CHEMBL1201862, “PubChem BioAssay data set” (2004)
